Molecular target: Nav 1.7 (Homo sapiens (Human), UniProt Q15858)
Assay: in-vitro Nav 1.7 PX (IC50)
Format: cell-based
Settings: in-vitro Nav 1.7 PX data

Nav 1.7, sequence (Q15858 whole entry): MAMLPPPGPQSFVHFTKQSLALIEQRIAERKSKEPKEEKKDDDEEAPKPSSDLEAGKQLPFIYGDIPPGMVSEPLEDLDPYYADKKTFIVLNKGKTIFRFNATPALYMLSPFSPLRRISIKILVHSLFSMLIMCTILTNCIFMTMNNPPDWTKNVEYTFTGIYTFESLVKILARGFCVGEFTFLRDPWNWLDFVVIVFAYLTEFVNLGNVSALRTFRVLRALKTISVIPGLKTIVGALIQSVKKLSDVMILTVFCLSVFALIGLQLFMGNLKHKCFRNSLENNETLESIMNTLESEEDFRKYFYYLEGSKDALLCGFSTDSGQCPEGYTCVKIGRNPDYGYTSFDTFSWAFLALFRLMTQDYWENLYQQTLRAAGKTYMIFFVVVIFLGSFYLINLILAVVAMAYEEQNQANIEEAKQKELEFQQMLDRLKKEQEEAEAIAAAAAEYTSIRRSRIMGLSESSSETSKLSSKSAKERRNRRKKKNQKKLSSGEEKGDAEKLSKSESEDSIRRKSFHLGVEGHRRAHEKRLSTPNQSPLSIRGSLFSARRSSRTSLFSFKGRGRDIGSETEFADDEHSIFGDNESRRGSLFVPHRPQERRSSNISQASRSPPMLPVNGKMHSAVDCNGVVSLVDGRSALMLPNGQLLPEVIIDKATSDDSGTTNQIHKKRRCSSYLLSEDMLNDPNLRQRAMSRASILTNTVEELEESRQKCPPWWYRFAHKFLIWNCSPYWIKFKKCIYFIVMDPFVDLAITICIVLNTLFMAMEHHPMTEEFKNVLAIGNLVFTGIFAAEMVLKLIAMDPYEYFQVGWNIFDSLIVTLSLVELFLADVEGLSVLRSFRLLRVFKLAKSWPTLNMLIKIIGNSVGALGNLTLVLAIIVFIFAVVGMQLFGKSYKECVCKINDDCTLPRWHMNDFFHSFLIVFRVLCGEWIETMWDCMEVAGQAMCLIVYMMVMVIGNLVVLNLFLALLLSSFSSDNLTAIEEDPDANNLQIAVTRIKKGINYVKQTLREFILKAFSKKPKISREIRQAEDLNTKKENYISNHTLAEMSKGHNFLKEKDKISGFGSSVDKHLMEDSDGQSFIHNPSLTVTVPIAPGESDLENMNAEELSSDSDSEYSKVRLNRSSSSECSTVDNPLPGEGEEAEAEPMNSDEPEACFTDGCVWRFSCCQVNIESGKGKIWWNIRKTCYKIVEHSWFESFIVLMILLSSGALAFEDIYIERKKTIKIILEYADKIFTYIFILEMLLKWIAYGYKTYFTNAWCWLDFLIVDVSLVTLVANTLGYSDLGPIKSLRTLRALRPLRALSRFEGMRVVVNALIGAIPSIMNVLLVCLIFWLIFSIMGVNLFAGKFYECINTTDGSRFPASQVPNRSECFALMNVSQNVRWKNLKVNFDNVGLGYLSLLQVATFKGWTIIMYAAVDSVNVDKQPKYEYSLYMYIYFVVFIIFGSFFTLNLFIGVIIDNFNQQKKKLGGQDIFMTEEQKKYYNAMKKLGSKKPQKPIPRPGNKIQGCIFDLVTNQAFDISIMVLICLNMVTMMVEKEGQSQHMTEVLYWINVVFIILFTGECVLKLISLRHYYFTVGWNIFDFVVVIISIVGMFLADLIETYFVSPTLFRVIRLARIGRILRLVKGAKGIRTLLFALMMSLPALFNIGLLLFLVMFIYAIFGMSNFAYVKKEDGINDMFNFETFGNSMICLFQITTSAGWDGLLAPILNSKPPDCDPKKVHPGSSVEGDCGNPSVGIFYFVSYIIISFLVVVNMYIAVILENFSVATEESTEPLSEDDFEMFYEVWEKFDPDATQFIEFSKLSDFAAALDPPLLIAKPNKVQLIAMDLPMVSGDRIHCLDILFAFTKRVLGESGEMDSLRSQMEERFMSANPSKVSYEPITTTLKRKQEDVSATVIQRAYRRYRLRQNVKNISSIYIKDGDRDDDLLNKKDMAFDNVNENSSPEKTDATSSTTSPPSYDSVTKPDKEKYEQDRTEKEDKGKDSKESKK

| IC50 | Compound |
| --- | --- |
| 6 nM | COc1cc(-c2cc(C)ccc2Cl)c(F)cc1-n1c(=O)ccc2cc(S(=O)(=O)Nc3ccon3)ccc21 [Example 716, 1-(2′-chloro-2-fluoro-5-methoxy-5′-methyl-4-biphenylyl)-N-3-isoxazolyl-2-oxo-1,2-dihydro-6-quinolinesulfonamide] |
| 153 nM | COc1ccc(C#N)cc1-c1cc(OC)c(-n2c(=O)ccc3cc(S(=O)(=O)Nc4ccon4)ccc32)cc1F [Example 718, 1-(5′-cyano-2-fluoro-2′,5-dimethoxy-4-biphenylyl)-N-3-isoxazolyl-2-oxo-1,2-dihydro-6-quinolinesulfonamide] |
| 49 nM | COc1cc(-c2cccc(C)c2F)c(F)cc1-n1c(=O)ccc2cc(S(=O)(=O)Nc3ccon3)ccc21 [Example 719, 1-(2,2′-difluoro-5-methoxy-3′-methyl-4-biphenylyl)-N-3-isoxazolyl-2-oxo-1,2-dihydro-6-quinolinesulfonamide] |
| 54 nM | COc1cc(-c2cc(OC)c(-n3c(=O)ccc4cc(S(=O)(=O)Nc5ccon5)ccc43)cc2F)ccc1C#N [Example 720, 1-(4′-cyano-2-fluoro-3′,5-dimethoxy-4-biphenylyl)-N-3-isoxazolyl-2-oxo-1,2-dihydro-6-quinolinesulfonamide] |
| 32 nM | COc1cc(-c2cncc(C(F)(F)F)c2)c(F)cc1-n1c(=O)ccc2cc(S(=O)(=O)Nc3ccon3)ccc21 [Example 721, 1-(5-fluoro-2-methoxy-4-(5-(trifluoromethyl)-3-pyridinyl)phenyl)-N-3-isoxazolyl-2-oxo-1,2-dihydro-6-quinolinesulfonamide] |
| 178 nM | COc1cc(-c2cnc(F)c(C)c2)c(F)cc1-n1c(=O)ccc2cc(S(=O)(=O)Nc3ccon3)ccc21 [Example 722, 1-(5-fluoro-4-(6-fluoro-5-methyl-3-pyridinyl)-2-methoxyphenyl)-N-3-isoxazolyl-2-oxo-1,2-dihydro-6-quinolinesulfonamide] |
| 7 nM | COc1cc(Cl)cc(-c2cc(OC)cc(-c3cc(OC)c(-n4c(=O)ccc5cc(S(=O)(=O)Nc6ccon6)ccc54)cc3F)c2)c1 [Example 723, 1-(3″-chloro-2-fluoro-5,5′,5″-trimethoxy-1,1′:3′,1″-terphenyl-4-yl)-N-3-isoxazolyl-2-oxo-1,2-dihydro-6-quinolinesulfonamide] |
| 12 nM | COc1cc(-c2ccc(C)cc2Cl)c(F)cc1-n1c(=O)ccc2cc(S(=O)(=O)Nc3ccon3)ccc21 [Example 725, 1-(2′-chloro-2-fluoro-5-methoxy-4′-methyl-4-biphenylyl)-N-3-isoxazolyl-2-oxo-1,2-dihydro-6-quinolinesulfonamide] |
| 25 nM | CCOc1cccc(-c2cc(OC)c(-n3c(=O)ccc4cc(S(=O)(=O)Nc5ccon5)ccc43)cc2F)c1 [Example 727, 1-(3′-ethoxy-2-fluoro-5-methoxy-4-biphenylyl)-N-3-isoxazolyl-2-oxo-1,2-dihydro-6-quinolinesulfonamide] |
| 8 nM | COc1cc(-c2cccc(OC(F)(F)F)c2)c(F)cc1-n1c(=O)ccc2cc(S(=O)(=O)Nc3ccon3)ccc21 [Example 728, 1-(2-fluoro-5-methoxy-3′-(trifluoromethoxy)-4-biphenylyl)-N-3-isoxazolyl-2-oxo-1,2-dihydro-6-quinolinesulfonamide] |
| 598 nM | COc1ccc(-c2cc(OC)c(-n3c(=O)ccc4cc(S(=O)(=O)Nc5ccon5)ccc43)cc2F)cn1 [Example 729, 1-(5-fluoro-2-methoxy-4-(6-methoxy-3-pyridinyl)phenyl)-N-3-isoxazolyl-2-oxo-1,2-dihydro-6-quinolinesulfonamide] |
| 795 nM | COc1cc(-c2cncc(F)c2)c(F)cc1-n1c(=O)ccc2cc(S(=O)(=O)Nc3ccon3)ccc21 [Example 730, 1-(5-fluoro-4-(5-fluoro-3-pyridinyl)-2-methoxyphenyl)-N-3-isoxazolyl-2-oxo-1,2-dihydro-6-quinolinesulfonamide] |
| 142 nM | COc1cc(-c2cccc(OC)c2Cl)c(F)cc1-n1c(=O)ccc2cc(S(=O)(=O)Nc3ccon3)ccc21 [Example 731, 1-(2′-chloro-2-fluoro-3′,5-dimethoxy-4-biphenylyl)-N-3-isoxazolyl-2-oxo-1,2-dihydro-6-quinolinesulfonamide] |
| 56 nM | COc1ccc(F)c(-c2cc(OC)c(-n3c(=O)ccc4cc(S(=O)(=O)Nc5ccon5)ccc43)cc2F)c1 [Example 732, 1-(2,2′-difluoro-5,5′-dimethoxy-4-biphenylyl)-N-3-isoxazolyl-2-oxo-1,2-dihydro-6-quinolinesulfonamide] |
| 20 nM | COc1cc(-c2ccc(Cl)cc2F)c(F)cc1-n1c(=O)ccc2cc(S(=O)(=O)Nc3ccon3)ccc21 [Example 733, 1-(4′-chloro-2,2′-difluoro-5-methoxy-4-biphenylyl)-N-3-isoxazolyl-2-oxo-1,2-dihydro-6-quinolinesulfonamide] |
| 81 nM | COc1cc(-c2cccc(OC)c2F)c(F)cc1-n1c(=O)ccc2cc(S(=O)(=O)Nc3ccon3)ccc21 [Example 734, 1-(2,2′-difluoro-3′,5-dimethoxy-4-biphenylyl)-N-3-isoxazolyl-2-oxo-1,2-dihydro-6-quinolinesulfonamide] |

| IC50 | Compound |
| --- | --- |
| 54 nM | COc1cc(-c2cccc(OC)c2C)c(F)cc1-n1c(=O)ccc2cc(S(=O)(=O)Nc3ccon3)ccc21 [Example 735, 1-(2-fluoro-3′,5-dimethoxy-2′-methyl-4-biphenylyl)-N-3-isoxazolyl-2-oxo-1,2-dihydro-6-quinolinesulfonamide] |
| 2810 nM | COc1cc(-c2ccnc(C)c2)c(F)cc1-n1c(=O)ccc2cc(S(=O)(=O)Nc3ccon3)ccc21 [Example 736, 1-(5-fluoro-2-methoxy-4-(2-methyl-4-pyridinyl)phenyl)-N-3-isoxazolyl-2-oxo-1,2-dihydro-6-quinolinesulfonamide] |
| 1250 nM | COc1cc(-c2cccnc2C)c(F)cc1-n1c(=O)ccc2cc(S(=O)(=O)Nc3ccon3)ccc21 [Example 737, 1-(5-fluoro-2-methoxy-4-(2-methyl-3-pyridinyl)phenyl)-N-3-isoxazolyl-2-oxo-1,2-dihydro-6-quinolinesulfonamide] |
| 1230 nM | COc1cncc(-c2cc(OC)c(-n3c(=O)ccc4cc(S(=O)(=O)Nc5ccon5)ccc43)cc2F)c1 [Example 738, 1-(5-fluoro-2-methoxy-4-(5-methoxy-3-pyridinyl)phenyl)-N-3-isoxazolyl-2-oxo-1,2-dihydro-6-quinolinesulfonamide] |
| 224 nM | COc1cc(-c2cc(OC)c(-n3c(=O)ccc4cc(S(=O)(=O)Nc5ccon5)ccc43)cc2F)ccn1 [Example 739, 1-(5-fluoro-2-methoxy-4-(2-methoxy-4-pyridinyl)phenyl)-N-3-isoxazolyl-2-oxo-1,2-dihydro-6-quinolinesulfonamide] |
| 9 nM | COc1cc(-c2cnc(OC)c(Cl)c2)c(F)cc1-n1c(=O)ccc2cc(S(=O)(=O)Nc3ccon3)ccc21 [Example 740, 1-(4-(5-chloro-6-methoxy-3-pyridinyl)-5-fluoro-2-methoxyphenyl)-N-3-isoxazolyl-2-oxo-1,2-dihydro-6-quinolinesulfonamide] |
| 71 nM | COc1cc(F)ccc1-c1cc(OC)c(-n2c(=O)ccc3cc(S(=O)(=O)Nc4ccon4)ccc32)cc1F [Example 741, 1-(2,4′-difluoro-2′,5-dimethoxy-4-biphenylyl)-N-3-isoxazolyl-2-oxo-1,2-dihydro-6-quinolinesulfonamide] |
| 7 nM | COc1cc(-c2ccc(Cl)cc2C)c(F)cc1-n1c(=O)ccc2cc(S(=O)(=O)Nc3ccon3)ccc21 [Example 742, 1-(4′-chloro-2-fluoro-5-methoxy-2′-methyl-4-biphenylyl)-N-3-isoxazolyl-2-oxo-1,2-dihydro-6-quinolinesulfonamide] |
| 5 nM | COc1cc(-c2cc(Cl)ccc2C)c(F)cc1-n1c(=O)ccc2cc(S(=O)(=O)Nc3ccon3)ccc21 [Example 743, 1-(5′-chloro-2-fluoro-5-methoxy-2′-methyl-4-biphenylyl)-N-3-isoxazolyl-2-oxo-1,2-dihydro-6-quinolinesulfonamide] |
| 7 nM | COc1ccc(Cl)cc1-c1cc(OC)c(-n2c(=O)ccc3cc(S(=O)(=O)Nc4ccon4)ccc32)cc1F [Example 744, 1-(5′-chloro-2-fluoro-2′,5-dimethoxy-4-biphenylyl)-N-3-isoxazolyl-2-oxo-1,2-dihydro-6-quinolinesulfonamide] |
| 51 nM | COc1cc(-c2ccnc(OC)c2Cl)c(F)cc1-n1c(=O)ccc2cc(S(=O)(=O)Nc3ccon3)ccc21 [Example 745, 1-(4-(3-chloro-2-methoxy-4-pyridinyl)-5-fluoro-2-methoxyphenyl)-N-3-isoxazolyl-2-oxo-1,2-dihydro-6-quinolinesulfonamide] |
| 24 nM | COc1cc(-c2ccc(Cl)cc2)c(F)cc1-n1c(=O)ccc2cc(S(=O)(=O)Nc3cccnn3)ccc21 [Example 746, 1-(4′-chloro-2-fluoro-5-methoxy-4-biphenylyl)-2-oxo-N-3-pyridazinyl-1,2-dihydro-6-quinolinesulfonamide] |
| 16 nM | COc1cc(-c2cccc(Cl)c2OC)c(F)cc1-n1c(=O)ccc2cc(S(=O)(=O)Nc3ccon3)ccc21 [Example 747, 1-(3′-chloro-2-fluoro-2′,5-dimethoxy-4-biphenylyl)-N-3-isoxazolyl-2-oxo-1,2-dihydro-6-quinolinesulfonamide] |
| 573 nM | COc1cc(-c2ccncc2Cl)c(F)cc1-n1c(=O)ccc2cc(S(=O)(=O)Nc3ccon3)ccc21 [Example 748, 1-(4-(3-chloro-4-pyridinyl)-5-fluoro-2-methoxyphenyl)-N-3-isoxazolyl-2-oxo-1,2-dihydro-6-quinolinesulfonamide] |
| 48 nM | COc1ccc(-c2cc(OC)c(-n3c(=O)ccc4cc(S(=O)(=O)Nc5ccon5)ccc43)cc2F)cc1C [Example 749, 1-(2-fluoro-4′,5-dimethoxy-3′-methyl-4-biphenylyl)-N-3-isoxazolyl-2-oxo-1,2-dihydro-6-quinolinesulfonamide] |
| 10 nM | COc1cc(-c2ccc(Cl)cc2)c(F)cc1-n1c(=O)ccc2cc(S(=O)(=O)Nc3ncc(F)cn3)ccc21 [Example 750, 1-(4′-chloro-2-fluoro-5-methoxy-4-biphenylyl)-N-(5-fluoro-2-pyrimidinyl)-2-oxo-1,2-dihydro-6-quinolinesulfonamide] |

Reference: patent publication US9212182B2, “Bicyclic sulfonamide compounds as sodium channel inhibitors” (AMGEN INC., priority 2013, dated 2015)
